Laboratory results taken from patent US6468983B2, “RNase L activators and antisense oligonucleotides effective to treat telomerase-expressing malignancies” (The Cleveland Clinic Foundation, priority 1997, dated 2002).
“Also recorded” adds a separate entry of the source.

Columns and labels:
[1] = tested on: telomerase RNA (hTR); test: RT-PCR for telomerase RNA in oligonucleotide-treated U251-MG cells; assay type: cell-based, human; settings: oligonucleotide 5 μM, 5 hours treatment
Procedure: Chimeric oligonucleotides were synthesised on solid supports and purified as described previously (Torrence et al 1993; Lesiak et al 1993; Xiao et al 1994, 1996; Cirino et al 1997). Tumor cells were seeded at 3×10^5 cells/well (3 ml) in 6-well plates and incubated overnight at 37° C. Cells were then treated with oligonucleotides (5 μM). Five hours later total RNA was isolated by using Trizol solution (GIBCO BRL, Grand Island, N.Y.). Expression of telomerase RNA was determined with RT-PCR. The RNA was reverse transcribed into complementary DNA (cDNA) with random oligos used as a primer, and then the cDNA was diluted three times with buffer 10×PCR buffer (Perkin-Elmer, Norwalk, Conn.) at a final concentration of 1:4. The DNA at each dilution was amplified using primers to antisense and sense sequences on opposite sides of the human telomerase RNA sequence, 5′-[…]-3′ (SEQ ID NO:4) and 5′[…]-3′ […], respectively, or to the GAPDH coding sequence, 5′-[…]-3′ […] and 5′[…]-3′ (SEQ ID NO:7), respectively, producing DNA fragments of 400 bp for telomerase cDNA and 508 bp for the GAPDH cDNA, respectively. The PCR went for 30 cycles (94° C., 1 min; 55° C., 1 min; 72° C., 2 min) for telomerase and 30 cycles (94° C., 1 min; 60° C., 1 min; 74° C., 3 min) for GAPDH. The PCR products were analyzed by 1.2% agarose gel electrophoresis and ethidium bromide staining.
Aliquots of U251-MG cells were treated with the “active” oligonucleotide and the two controls for 5 hours. RNA was then prepared from these cells and subjected to RT-PCR to detect telomerase RNA. […] In contrast, telomerase RNA (hTR) was present in cells treated with the control oligonucleotides; spA2-anti-hTR and spA4-anti-(M6)hTR. Thus, hTR could be selectively destroyed in U251-MG cells. Since the RT-PCR assay is not quantitative, it was not possible to assess whether treatment with the spA2-anti-hTR , which has the fully complementary target sequence, had any antisense effect by itself (see below). […]

[2] = tested on: human melanoma cell line, A375; test: Viable cell count, daily oligonucleotide plus lipofectamine; assay type: cell-based; settings: A375, 0.5 micromolar daily plus lipofectamine
Procedure: (§1) Cells (10,000/well) were seeded on 96 well tissue culture dishes, and treated every 24 hours. A 10× concentrated mixture of oligonucleotides plus lipofectamine in water was prepared containing 5 micromolar oligonucleotide and 80 microgram per ml lipofectamine™ (Gibco/BRL) and incubated for 10 min at room temperature. Media was removed from the cells, 10 microliters of the oligonucleotide/lipofectamine mixture was added directly to the cultured cells followed by 90 microliters of media plus serum. The media was changed with oligonucleotide/lipofectamine treatments every 24 h. Cells were passaged when the control cells reached confluency, and viable cells were counted after staining with Trypan Blue (GibcoBRL). The numbers of cells treated only with lipofectamine were used as the control to calculate percentages of cell survival or viability.
(§2) Similarly, the viability of the breast cancer cell line, MDA468, was reduced by 64% by SpA4-anti-hTR, while the control oligonucleotides reduced cell viability by <20% (FIG. 6). Viability of the human melanoma cell line, A375, was reduced by 43% in three days by SpA4-anti-hTR, while the control oligonucleotides had no effect (FIG. 7). […] Viability of a third human melanoma cell line, SK-MEL-5, was reduced by 43% by SpA4-anti-hTR, with minimal effects by the control oligonucleotides (FIG. 7). Two prostate tumor cells lines, PC3 and DU145, were suppressed by SpA4-anti-hTR treatments by 45% and 60%, respectively (FIGS. 6 and 10). […] The viability of the malignant glioma cell line, U373, was reduced by about 60% in 3 days, with intermediate effects by the control oligonucleotides (FIG. 6). Therefore, the proliferation and survival of every tumor cell type tested was inhibited by SpA4-anti-hTR. […] In contrast, there was no apoptosis detected in the control cells treated with lipofectamine without oligonucleotide (FIG. 12 upper panel).

[3] = tested on: human melanoma cell line, SK-MEL-2; test: as above; assay type: cell-based; settings: SK-MEL-2, 0.5 micromolar daily plus lipofectamine
Procedure: as §1, §2

[4] = tested on: human melanoma cell line, SK-MEL-5; test: as above; assay type: cell-based; settings: SK-MEL-5, 0.5 micromolar daily plus lipofectamine
Procedure: as §1, §2

[5] = tested on: U373 human malignant glioma cells; test: TUNEL assay for apoptosis, oligonucleotide plus lipofectamine; assay type: cell-based
Procedure: To further determine whether treatment with oligonucleotides induced apoptosis, tumor cells and tissues were stained by the terminal deoxynucleotidyl transferase (TdT)-mediated DUTP nick end labeling (TUNEL) technique using Apo-Tag kit (peroxidase conjugated) (Oncor Inc., Gaithersburg, Md.). The staining of apoptotic cells was done on U373MG cells. Oligonucleotides with lipofectamine was added to the cells every day. The final concentrations were 0.5 micromolar and 8 microgram/ml for oligo and lipofectamine, respectively. Pictures were taken after 3 days of treatment.

Sp5′A2′p(5′A2p)3-[(Bu)p]2-5′GCG CGG GGA GCA AAA GCA C3′-3′T5′ (antisense GCGCGGGGAGCAAAAGCAC; 5'-thiophosphate 2-5A tetramer, butanediol linkers, 3'-3'T cap, chemistry not fully specified) [spA4-anti-hTR, 2-5A tetramer linked by butanediol linkers to 19-mer antisense against human telomerase RNA nucleotides 76 to 94]
telomerase RNA (hTR) detected by RT-PCR [1]: no detectable telomerase RNA | effect on growth/viability (in words) [2]: specifically suppressed growth | reduction in viability ([2]; three days): 43% | effect on growth/viability (in words) [3]: specifically suppressed growth | survival [3]: < 0.1% | effect on growth/viability (in words) [4]: specifically suppressed growth | reduction in viability [4]: 43% | apoptosis by TUNEL (in words) ([5]; 0.5 micromolar daily plus lipofectamine for 3 days): apoptosis was clearly visible | apoptosis by TUNEL assay for DNA breakage (in words) ([5]; over time of treatment): time-dependent increase in apoptotic cells; also recorded: caused apoptosis
